Data from paper PMC10591846 (Cell reports, 2023).

Assays:
[1] = tested on: KLHDC10; assay: In vitro peptide binding to KLHDC10; conditions: Figure S12
[2] = target: T1, Pirh2 (Homo sapiens, UniProt Q96PM5); assay: In vitro peptide binding to Pirh2; conditions: Figure S12
T1 sequence (Q96PM5 1-261): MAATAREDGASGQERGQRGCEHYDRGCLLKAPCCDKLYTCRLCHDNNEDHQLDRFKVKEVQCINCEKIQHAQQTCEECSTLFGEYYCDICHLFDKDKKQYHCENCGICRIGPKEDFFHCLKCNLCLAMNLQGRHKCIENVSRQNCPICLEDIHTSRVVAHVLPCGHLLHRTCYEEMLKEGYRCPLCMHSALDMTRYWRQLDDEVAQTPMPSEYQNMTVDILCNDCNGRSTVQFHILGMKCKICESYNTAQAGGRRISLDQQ

KHKLEQLRNSCA
binding to KLHDC10 in vitro [1]: did not bind | binding to Pirh2 in vitro [2]: did not bind
